Experimental data published in publication PMC3072440 (Chemical research in toxicology, 2010).
Read-outs that look alike come from different tables or passages of the source. One block for each compound: values may come before it.

Assays:
human P450 2C9 [1] = target: T1, human P450 2C9 (Homo sapiens, UniProt P11712); assay: Spectral binding titration with purified P450 2C9; conditions: concentrations up to 100 µM; results not shown
human P450 2C9 [2] = target: T1, human P450 2C9; assay: Inhibition of P450 2C9-dependent flurbiprofen 4’-hydroxylation
human P450 3A4 [3] = target: T2, human P450 3A4 (Homo sapiens, UniProt P08684); assay: Inhibition of P450 3A4-dependent midazolam 4-hydroxylation
human P450 2C9 [4] = target: T1, human P450 2C9
human P450 3A4 [5] = target: T2, human P450 3A4; assay: Effect on P450 3A4-catalyzed midazolam 1’-hydroxylation
human P450 3A4 [6] = target: T2, human P450 3A4; assay: Spectral binding titration with purified P450 3A4; conditions: for spectral change / Type I binding spectra with P450 3A4, in words: decreases in α and β bands monitored, up to 100 µM
human P450 1A2 [7] = target: T3, human P450 1A2 (Homo sapiens, UniProt P05177)
T3 sequence (P05177 1-516): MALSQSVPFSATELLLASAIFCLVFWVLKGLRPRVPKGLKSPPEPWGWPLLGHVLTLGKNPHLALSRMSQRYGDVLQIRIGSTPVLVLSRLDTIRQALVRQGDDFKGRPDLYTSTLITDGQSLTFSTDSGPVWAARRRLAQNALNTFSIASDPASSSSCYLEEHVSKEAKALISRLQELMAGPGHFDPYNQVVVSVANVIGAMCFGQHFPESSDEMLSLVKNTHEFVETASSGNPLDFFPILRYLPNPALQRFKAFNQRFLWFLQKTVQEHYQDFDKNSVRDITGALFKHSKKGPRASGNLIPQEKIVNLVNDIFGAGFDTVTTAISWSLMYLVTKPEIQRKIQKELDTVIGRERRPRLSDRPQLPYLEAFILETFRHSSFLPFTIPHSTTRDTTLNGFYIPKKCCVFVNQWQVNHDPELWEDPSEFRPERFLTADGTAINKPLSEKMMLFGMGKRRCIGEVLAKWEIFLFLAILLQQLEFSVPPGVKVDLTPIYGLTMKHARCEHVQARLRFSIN

human P450 1A1 = target: T4, human P450 1A1 (Homo sapiens, UniProt P04798); assay: Inhibition of P450 1A1-dependent EROD activity; type: biochemical
T4 sequence (P04798 1-512): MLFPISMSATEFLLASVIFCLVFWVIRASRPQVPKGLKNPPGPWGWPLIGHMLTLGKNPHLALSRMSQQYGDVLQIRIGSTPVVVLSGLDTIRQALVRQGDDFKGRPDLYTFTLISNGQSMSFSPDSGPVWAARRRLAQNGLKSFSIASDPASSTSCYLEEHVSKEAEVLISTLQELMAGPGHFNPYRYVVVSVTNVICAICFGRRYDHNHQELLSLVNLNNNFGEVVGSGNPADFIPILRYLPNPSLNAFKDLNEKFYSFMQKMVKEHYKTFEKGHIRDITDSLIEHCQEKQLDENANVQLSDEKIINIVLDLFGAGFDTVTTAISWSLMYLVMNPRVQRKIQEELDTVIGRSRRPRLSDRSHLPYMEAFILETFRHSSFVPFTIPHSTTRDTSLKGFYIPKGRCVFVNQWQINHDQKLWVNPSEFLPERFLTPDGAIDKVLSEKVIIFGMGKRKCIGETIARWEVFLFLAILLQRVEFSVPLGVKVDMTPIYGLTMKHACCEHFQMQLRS

human P450 1A2 [8] = target: T3, human P450 1A2; assay: Inhibition of P450 1A2-dependent EROD activity
human P450 1B1 [9] = target: T5, human P450 1B1 (Homo sapiens, UniProt Q16678); assay: Inhibition of P450 1B1-dependent EROD activity; type: biochemical
T5 sequence (Q16678 1-543): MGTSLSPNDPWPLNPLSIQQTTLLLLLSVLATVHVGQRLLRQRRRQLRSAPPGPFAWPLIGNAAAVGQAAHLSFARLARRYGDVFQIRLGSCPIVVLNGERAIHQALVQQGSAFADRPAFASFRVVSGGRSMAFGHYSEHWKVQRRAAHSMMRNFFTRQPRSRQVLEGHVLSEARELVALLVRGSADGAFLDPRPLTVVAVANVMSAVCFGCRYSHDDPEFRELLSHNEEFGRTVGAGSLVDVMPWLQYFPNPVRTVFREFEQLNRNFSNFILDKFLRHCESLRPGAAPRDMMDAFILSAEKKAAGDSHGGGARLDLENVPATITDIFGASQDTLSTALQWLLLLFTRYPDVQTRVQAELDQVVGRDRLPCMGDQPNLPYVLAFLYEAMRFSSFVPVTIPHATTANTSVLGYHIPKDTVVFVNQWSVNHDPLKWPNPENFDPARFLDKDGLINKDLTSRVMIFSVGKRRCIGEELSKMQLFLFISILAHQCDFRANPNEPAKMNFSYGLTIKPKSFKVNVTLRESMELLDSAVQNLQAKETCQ

human P450 1B1 [10] = target: T5, human P450 1B1; assay: Spectral binding titration with purified P450 1B1

T2 sequence (P08684 whole entry): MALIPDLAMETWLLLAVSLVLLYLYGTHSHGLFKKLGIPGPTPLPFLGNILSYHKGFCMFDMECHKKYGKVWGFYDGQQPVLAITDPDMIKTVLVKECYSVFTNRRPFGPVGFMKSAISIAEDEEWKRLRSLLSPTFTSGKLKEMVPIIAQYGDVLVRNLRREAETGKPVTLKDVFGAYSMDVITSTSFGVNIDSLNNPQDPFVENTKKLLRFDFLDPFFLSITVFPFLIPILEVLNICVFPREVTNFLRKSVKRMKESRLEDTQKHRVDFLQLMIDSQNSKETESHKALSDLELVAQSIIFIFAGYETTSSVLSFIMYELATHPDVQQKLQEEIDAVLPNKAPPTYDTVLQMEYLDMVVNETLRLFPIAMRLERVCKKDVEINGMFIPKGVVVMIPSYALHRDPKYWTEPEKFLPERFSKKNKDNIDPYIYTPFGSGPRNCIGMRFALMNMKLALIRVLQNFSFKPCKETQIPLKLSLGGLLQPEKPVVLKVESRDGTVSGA
T1 sequence (P11712 whole entry): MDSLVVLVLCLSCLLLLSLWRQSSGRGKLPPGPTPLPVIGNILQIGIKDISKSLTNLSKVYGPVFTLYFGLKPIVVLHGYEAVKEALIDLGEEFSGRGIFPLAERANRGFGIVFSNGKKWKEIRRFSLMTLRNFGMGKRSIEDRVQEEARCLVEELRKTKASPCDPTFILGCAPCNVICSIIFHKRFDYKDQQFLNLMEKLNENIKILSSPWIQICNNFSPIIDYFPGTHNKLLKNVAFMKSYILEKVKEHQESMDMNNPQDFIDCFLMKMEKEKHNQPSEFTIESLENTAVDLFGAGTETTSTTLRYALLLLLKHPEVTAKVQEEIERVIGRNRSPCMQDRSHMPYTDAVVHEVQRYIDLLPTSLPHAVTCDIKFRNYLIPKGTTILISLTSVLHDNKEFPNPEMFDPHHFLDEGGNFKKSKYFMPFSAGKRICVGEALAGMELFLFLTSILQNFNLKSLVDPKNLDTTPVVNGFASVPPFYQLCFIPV

Compound: O=c1cc(-c2ccccc2)oc2cc(O)ccc12 [7HF, 7-hydroxyflavone]
spectral changes with P450 2C9, in words (human P450 2C9 [1]): did not induce spectral changes | inhibition of P450 2C9 flurbiprofen 4’-hydroxylation, in words (human P450 2C9 [2]): strong inhibitors | IC50 (human P450 3A4 [3]): > 100000 nM

Compound: O=c1c(O)c(-c2ccccc2)oc2cc(O)cc(O)c12 [357THF, 3,5,7-trihydroxyflavone]
effect on formation of 1’-hydroxymidazolam by P450 3A4, in words (human P450 3A4 [5]): slightly activated | spectral changes with P450 2C9, in words (human P450 2C9 [1]): did not induce spectral changes | IC50 (human P450 2C9 [2]): 200 ± 30 nM | inhibition of P450 2C9 flurbiprofen 4’-hydroxylation, in words (human P450 2C9 [2]): strong inhibitors | IC50 (human P450 3A4 [3]): 2300 ± 300 nM | inhibition of P450 3A4 midazolam 4-hydroxylation, in words (human P450 3A4 [3]): significantly inhibited | spectral change / Type I binding spectra with P450 3A4, in words (human P450 3A4 [6]): induced spectral changes

Compound: C#CCOc1ccccc1-c1cc(=O)c2ccc3ccccc3c2o1 [ANF2’PE, α-naphthoflavone 2’-propargyl ether]
IC50 (human P450 1A2 [7]): 240 nM

Compound: C#CCOc1ccc(-c2cc(=O)c3ccc4ccccc4c3o2)cc1 [ANF4’PE, α-naphthoflavone 4’-propargyl ether]
IC50 (human P450 1A2 [7]): 100 nM

Compound: O=c1cc(-c2ccccc2)oc2c1ccc1ccccc12 [ANF, α-naphthoflavone]
spectral changes with P450 2C9, in words (human P450 2C9 [1]): did not induce spectral changes | inhibition of P450 1A1 EROD, in words (human P450 1A1): strongly inhibited | IC50 (human P450 3A4 [3]): 18000 nM

Compound: C#CCOc1ccccc1-c1cc(=O)c2c(ccc3ccccc32)o1 [BNF2’PE, β–naphthoflavone 2’-propargyl ether]
inhibition of P450 1A2 EROD, in words (human P450 1A2 [7]): only weakly

Compound: O=c1cc(-c2ccccc2)oc2ccc3ccccc3c12 [BNF, β–naphthoflavone]
spectral changes with P450 2C9, in words (human P450 2C9 [1]): did not induce spectral changes | inhibition of P450 1A2 EROD, in words (human P450 1A2 [8]): only weakly | IC50 (human P450 1B1 [9]): 17 nM | inhibition of P450 1A1 EROD, in words (human P450 1A1): strongly inhibited | inhibition of P450 3A4 midazolam 4-hydroxylation, in words (human P450 3A4 [3]): not active inhibitors

Compound: CC(C(=O)O)c1ccc(-c2ccccc2)c(F)c1 (centres unmarked) [flurbiprofen]
spectral changes with P450 2C9, in words (human P450 2C9 [1]): Type I spectra

Continued, in another order:

spectral changes with P450 2C9, in words (human P450 2C9 [1]): did not induce spectral changes
Compound: O=c1c(O)c(-c2ccc(O)cc2)oc2cc(O)cc(O)c12 [34’57TetraHF, 3,4’,5,7-tetrahydroxyflavone]

inhibition of P450 2C9 flurbiprofen 4’-hydroxylation, in words (human P450 2C9 [4]): strong inhibitors | IC50 (human P450 2C9 [2]): 800 ± 140 nM
Compound: O=c1cc(-c2ccccc2)oc2cc(O)cc(O)c12 [57DHF, 5,7-dihydroxyflavone]

inhibition of P450 1A2 EROD, in words (human P450 1A2 [7]): only weakly
Compound: C#CCOc1ccc(-c2cc(=O)c3c(ccc4ccccc43)o2)cc1 [BNF4’PE, β–naphthoflavone 4’-propargyl ether]

spectral changes with P450 2C9, in words (human P450 2C9 [1]): did not induce spectral changes | IC50 (human P450 1A2 [8]): 130 ± 30 nM | binding spectra with P450 1B1, in words (human P450 1B1 [10]): Reverse Type I binding spectra | IC50 (human P450 1A1): 980 ± 210 nM | IC50 (human P450 2C9 [2]): 14000 ± 1200 nM | spectral change / Type I binding spectra with P450 3A4, in words (human P450 3A4 [6]): Type I spectral change | ΔAmax, P450 3A4, from difference spectra (Soret band) (human P450 3A4 [6]; purified P450 3A4): 0.12 ± 0.02
Compound: O=c1cc(-c2ccccc2)oc2ccccc12 [flavone]
effect on formation of 1’-hydroxymidazolam by P450 3A4, in words (human P450 3A4 [5]): enhanced the formation of 1’-hydroxymidazolam | inhibition of P450 3A4 midazolam 4-hydroxylation, in words (human P450 3A4 [3]): inhibited the formation of 4-hydroxymidazolam
